Literature values as cited in patent US7625708B1 (priority 2005, dated 2009).

Tests used:
[1] = system: Cytochrome P450 1A1 (CYP 1A1)
[2] = system: Glutathion-S-Transferase (GST)
[3] = system: Aldehyde Dehydrogenase (ALDH)
[4] = system: NAD(P)H: Quinone Oxidoreductase I (NQO I)
[5] = system: GDNF mRNA; details: rat, in vivo
[6] = rabbit, in vivo

## CCC1(c2ccccc2)C(=O)NC(=O)NC1=O [phenobarbital]
[1]
  CYP1A1 activity: showed increase CYP1A1 activity (cell

## Cc1ccc2cc3c(ccc4ccccc43)c3c2c1CC3 [methylcholanthrene]
[2]
  induction of GST: showed induction of GST (cell culture)
[3]
  induction of ALDH: showed induction of ALDH (cell culture)
[1]
  CYP1A1 activity: showed increase CYP1A1 activity (cell
[4]
  induction of NQO I: showed induction of NQO I (cell culture)

## c1ccc(C2(N3CCCCC3)CCCCC2)cc1 [phencyclidine]
[5]
  GDNF mRNA expression: GDNF mRNA expression increased in rats

## CNC(=O)ON=C(C)SC [methomyl]
[6]
  detection in the hair shaft: could be detected

## O=c1cc(-c2ccccc2)oc2ccc3ccccc3c12 [β-naphthaoflavone]
[1]
  CYP1A1 activity: showed increase CYP1A1 activity (cell
